PMC6658616, “Novel Peptide Conjugates of Modified Oligonucleotides for Inhibition of Bacterial RNase P” (Frontiers in Pharmacology, 2019)

Tested on: E. coli RNase P (M1 RNA + C5 protein)
Test: Inhibition of RNase P hydrolysis of fluorescent RNA target by inhibiting oligonucleotides
Type: biochemical, Escherichia coli
Conditions: 5 nM M1 RNA, 50 nM C5 protein, 100 nM fluorescent RNA target, 0-125 nM inhibiting oligonucleotide, 10 mM Tris-HCl pH 7.5, 10 mM MgCl2, 100 mM NH4Cl, 37°C; fluorescence read-out; mean ± SD from two independent experiments

| Substance | IC50 [nM] |
| --- | --- |
| d-inh: oligodeoxyribonucleotide 5’-d(CAAGCAGCCTACCC) (DNA, backbone not given here) | 270 ± 90 |
| r-inh: native oligoribonucleotide 5’-r(CAAGCAGCCUACCC), complementary to nucleotides 291–304 in the P15-loop of E. coli M1 RNA (RNA, backbone not given here) | 12 ± 4 |
